Source: publication PMC4904242, “Comparative chemical genomics reveal that the spiroindolone antimalarial KAE609 (Cipargamin) is a P-type ATPase inhibitor” (Scientific Reports, 2016)

Target: T1, ScPma1p (Saccharomyces cerevisiae, UniProt P05030)
T1 construct: gene PMA1; ScPma1p-coated secretory vesicles from S. cerevisiae overexpressing ScPMA1
Test: cell-free vesicle ATPase assay (Pi release)
Format: biochemical

T1 sequence (P05030 whole entry): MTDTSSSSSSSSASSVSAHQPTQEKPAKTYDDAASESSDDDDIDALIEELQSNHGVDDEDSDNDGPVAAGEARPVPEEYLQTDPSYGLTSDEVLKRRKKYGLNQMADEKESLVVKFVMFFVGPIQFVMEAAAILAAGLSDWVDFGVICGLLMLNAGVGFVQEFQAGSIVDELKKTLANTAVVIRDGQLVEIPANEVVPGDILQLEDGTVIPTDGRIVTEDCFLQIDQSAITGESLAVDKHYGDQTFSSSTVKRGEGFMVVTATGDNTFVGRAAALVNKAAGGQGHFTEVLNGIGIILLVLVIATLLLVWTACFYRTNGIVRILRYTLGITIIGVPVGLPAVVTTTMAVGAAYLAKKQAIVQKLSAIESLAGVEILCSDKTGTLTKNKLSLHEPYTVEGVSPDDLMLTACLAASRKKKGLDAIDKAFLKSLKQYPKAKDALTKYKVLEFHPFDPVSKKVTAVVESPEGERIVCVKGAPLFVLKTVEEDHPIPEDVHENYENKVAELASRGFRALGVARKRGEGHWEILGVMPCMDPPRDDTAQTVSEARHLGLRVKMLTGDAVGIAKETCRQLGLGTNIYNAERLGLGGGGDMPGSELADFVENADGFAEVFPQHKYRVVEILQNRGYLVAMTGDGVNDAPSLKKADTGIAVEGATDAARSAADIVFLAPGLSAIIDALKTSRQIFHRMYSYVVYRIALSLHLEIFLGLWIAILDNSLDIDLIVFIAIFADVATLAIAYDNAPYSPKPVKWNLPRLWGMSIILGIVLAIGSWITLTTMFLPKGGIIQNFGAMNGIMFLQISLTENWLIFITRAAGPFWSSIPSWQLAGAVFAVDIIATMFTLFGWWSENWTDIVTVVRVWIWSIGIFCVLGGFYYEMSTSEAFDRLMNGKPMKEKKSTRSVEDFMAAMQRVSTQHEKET

- IC50: 81.1 nM
SMILES: C[C@H]1Cc2c([nH]c3cc(Cl)c(F)cc23)[C@@]2(N1)C(=O)Nc1ccc(Cl)cc12 [6′F 7′Cl, KAE609]
